Measured values as given in the supplement of paper PMC13380429.

Experiments:
Conditions in all cases: 72 h
Caco-2 [1] = experiment: cell viability relative to DMSO; higher = less toxic
Calu-3 [2] = experiment: as above
HepG2 [3] = experiment: as above
U2OS [4] = experiment: as above
Vero E6 [5] = experiment: as above
Caco-2 [6] = experiment: relative viability EC50 (midpoint between 100% and the lowest measured viability); higher = less toxic
Calu-3 [7] = experiment: as above
HepG2 [8] = experiment: as above
U2OS [9] = experiment: as above
Vero E6 [10] = experiment: as above
Caco-2 [11] = experiment: drug sensitivity score (DSS) for viability; higher = more toxic; extreme values may be limits of the assay
Calu-3 [12] = experiment: as above
HepG2 [13] = experiment: as above
U2OS [14] = experiment: as above
Vero E6 [15] = experiment: as above

| SMILES | cell viability (Caco-2 [1]; 1 nM) [%] | cell viability (Caco-2 [1]; 10 nM) [%] | cell viability (Caco-2 [1]; 100 nM) [%] | cell viability (Caco-2 [1]; 1000 nM) [%] | cell viability (Caco-2 [1]; 10000 nM) [%] | cell viability (Calu-3 [2]; 1 nM) [%] | cell viability (Calu-3 [2]; 10 nM) [%] | cell viability (Calu-3 [2]; 100 nM) [%] | cell viability (Calu-3 [2]; 1000 nM) [%] | cell viability (Calu-3 [2]; 10000 nM) [%] | cell viability (HepG2 [3]; 1 nM) [%] | cell viability (HepG2 [3]; 10 nM) [%] | cell viability (HepG2 [3]; 100 nM) [%] | cell viability (HepG2 [3]; 1000 nM) [%] | cell viability (HepG2 [3]; 10000 nM) [%] | cell viability (U2OS [4]; 1 nM) [%] | cell viability (U2OS [4]; 10 nM) [%] | cell viability (U2OS [4]; 100 nM) [%] | cell viability (U2OS [4]; 1000 nM) [%] | cell viability (U2OS [4]; 10000 nM) [%] | cell viability (Vero E6 [5]; 1 nM) [%] | cell viability (Vero E6 [5]; 10 nM) [%] | cell viability (Vero E6 [5]; 100 nM) [%] | cell viability (Vero E6 [5]; 1000 nM) [%] | cell viability (Vero E6 [5]; 10000 nM) [%] | relative viability EC50 (Caco-2 [6]) [µM] | relative viability EC50 (Calu-3 [7]) [µM] | relative viability EC50 (HepG2 [8]) [µM] | relative viability EC50 (U2OS [9]) [µM] | relative viability EC50 (Vero E6 [10]) [µM] | drug sensitivity score (Caco-2 [11]) | drug sensitivity score (Calu-3 [12]) | drug sensitivity score (HepG2 [13]) | drug sensitivity score (U2OS [14]) | drug sensitivity score (Vero E6 [15]) |
| --- | --- | --- | --- | --- | --- | --- | --- | --- | --- | --- | --- | --- | --- | --- | --- | --- | --- | --- | --- | --- | --- | --- | --- | --- | --- | --- | --- | --- | --- | --- | --- | --- | --- | --- | --- |
| N#Cc1cc(CN2CCC(Nc3ncnc4sc(Cl)cc34)CC2)ccc1F | 98 | 98.7 | 91.2 | 98.8 | 79.7 | 104 | 106 | 103 | 97.7 | 87.7 | 97.6 | 97.3 | 107 | 78.6 | 29.1 | 96.9 | 98.6 | 96.3 | 103 | 89.1 | 102 | 98.1 | 103 | 102 | 93.4 | > 10 | > 10 | 1.4 | > 10 | > 10 | 0.8 | 0.2 | 7.1 | 0 | 0 |
| NC(CO)C(=O)NNCc1ccc(O)c(O)c1O (stereo not given) [benserazide] | 95.7 | 99 | 81.6 | 97.8 | 87.9 | 88.9 | 89.8 | 95.7 | 96.2 | 92.2 | 80.5 | 97.4 | 104 | 85 | 94.5 | 96.8 | 101 | 93 | 99.8 | 94 | 115 | 99.8 | 106 | 97 | 106 | > 10 | > 10 | > 10 | > 10 | > 10 | 0 | 0 | 0 | 0 | 0 |
| CCC(N)C(O)c1ccc(O)c(O)c1 (stereo not given) [ethylnorepinephrine] | 93.7 | 95.5 | 103 | 89.9 | 95.1 | 101 | 99.4 | 108 | 91.9 | 104 | 100 | 110 | 98.7 | 109 | 102 | 100 | 94.8 | 98.4 | 98.4 | 99.3 | 93.9 | 102 | 104 | 107 | 112 | > 10 | > 10 | > 10 | > 10 | > 10 | 0 | 0 | 0 | 0 | 0 |
| C[C@H](N)C(=O)N[C@@H](CCC(N)=O)C(=O)O [dipeptamin] | 97.4 | 104 | 96.5 | 95.2 | 110 | 101 | 98.9 | 94.7 | 95.1 | 103 | 104 | 93.2 | 95.5 | 100 | 96.1 | 95.9 | 106 | 98.6 | 103 | 98.9 | 99.5 | 98.1 | 94.1 | 98 | 95.4 | > 10 | > 10 | > 10 | > 10 | > 10 | 0 | 0 | 0 | 0 | 0 |
| Nc1nc(Nc2ccccc2)nc2c1ncn2[C@@H]1O[C@H](CO)[C@@H](O)[C@H]1O [CV-1808] | 98.9 | 93 | 101 | 105 | 99.3 | 101 | 106 | 93 | 110 | 106 | 95.4 | 94.2 | 109 | 98.8 | 94.9 | 103 | 100 | 98.5 | 106 | 105 | 94 | 93 | 94.5 | 96.3 | 97.2 | > 10 | > 10 | > 10 | > 10 | > 10 | 0 | 0 | 0 | 0 | 0 |
| O=C(O)Cn1nnc(-c2cc(N3CCC(Oc4cc(F)ccc4Br)CC3)no2)n1 [MK-8245] | 101 | 106 | 99.5 | 102 | 94.8 | 102 | 108 | 97.7 | 90.8 | 96.5 | 109 | 95.8 | 88.3 | 88.8 | 76.1 | 103 | 102 | 96.2 | 101 | 98.6 | 98.3 | 94.8 | 98.8 | 92.2 | 86.3 | > 10 | > 10 | > 10 | > 10 | > 10 | 0 | 0 | 2.2 | 0 | 0.1 |
| C#CCC(Cc1cnc2nc(N)nc(N)c2n1)c1ccc(C(=O)N[C@@H](CCC(=O)O)C(=O)O)cc1 (stereo not given in full) [pralatrexate] | 97 | 81.8 | 55.3 | 49.6 | 56.2 | 107 | 102 | 91.4 | 88.2 | 93.6 | 99.2 | 22.9 | 21.3 | 17.8 | 17.1 | 105 | 76.8 | 97.2 | 90 | 98.6 | 98.9 | 19.2 | 14.4 | 16.7 | 14.2 | 0.0164 | > 10 | 0.0038 | > 10 | 0.0036 | 16.7 | 0.8 | 35.4 | 0 | 36.7 |
| Cc1cc(C(=O)Nc2cc(Oc3ccc4nc(NC(=O)C5CC5)cn4n3)ccc2C)n(C)n1 [TAK-593] | 98.4 | 99 | 93.2 | 97.6 | 80.5 | 94.6 | 102 | 97.6 | 101 | 98.3 | 99.1 | 95.5 | 93.1 | 104 | 75.4 | 101 | 103 | 98.4 | 95.1 | 94.1 | 99.6 | 101 | 96.3 | 95.4 | 91.1 | > 10 | > 10 | > 10 | > 10 | > 10 | 0.9 | 0 | 0.7 | 0 | 0 |
| C[C@H](C[C@H](N)C(=O)O)C(=O)O [SYM-2081] | 103 | 96 | 105 | 97.5 | 98.4 | 102 | 88.4 | 96.6 | 95.3 | 102 | 104 | 88.4 | 91.9 | 96.6 | 93.8 | 100 | 97.5 | 100 | 97.7 | 106 | 101 | 102 | 95.1 | 104 | 93.4 | > 10 | > 10 | > 10 | > 10 | > 10 | 0 | 0 | 0 | 0 | 0 |
| COC(=O)[C@H]1[C@H]2C[C@@H]3c4[nH]c5cc(OC)ccc5c4CCN3C[C@H]2C[C@@H](OC(=O)c2cc(OC)c(OC)c(OC)c2)[C@@H]1OC [reserpine] | 110 | 90.1 | 96.4 | 91.9 | 101 | 107 | 92.5 | 109 | 102 | 111 | 106 | 93.5 | 81.3 | 96 | 96.6 | 98 | 97.7 | 95.8 | 94.8 | 99.2 | 112 | 95.2 | 96.6 | 104 | 97.1 | > 10 | > 10 | > 10 | > 10 | > 10 | 0 | 0 | 0 | 0 | 0 |
| C[N+]1(CCCCC[N+]2(C)CCCC2)CCCC1 [pentolinium] | 99 | 109 | 124 | 107 | 88.7 | 97.1 | 91.2 | 110 | 94 | 88.1 | 79.4 | 99.3 | 96 | 112 | 97.6 | 94.2 | 98.7 | 100 | 99.2 | 102 | 96.3 | 105 | 102 | 101 | 108 | > 10 | > 10 | > 10 | > 10 | > 10 | 0 | 0.3 | 0 | 0 | 0 |
| CCCCC[C@H](O)/C=C/[C@H]1[C@H](O)CC(=O)[C@@H]1C/C=C\CCCC(=O)O [dinoprostone] | 101 | 104 | 101 | 102 | 95.2 | 96.3 | 90 | 90.2 | 94 | 94.8 | 99.8 | 104 | 90.4 | 103 | 99 | 101 | 98.2 | 102 | 98.5 | 98.3 | 101 | 107 | 101 | 103 | 94.9 | > 10 | > 10 | > 10 | > 10 | > 10 | 0 | 0 | 0 | 0 | 0 |
| OB1OCc2cc(F)ccc21 [tavaborole] | 95.6 | 87.4 | 91.7 | 88.3 | 97.3 | 101 | 105 | 96.4 | 104 | 105 | 92.9 | 105 | 103 | 102 | 105 | 99.2 | 97.3 | 100 | 97.2 | 102 | 94.6 | 96 | 87.7 | 92 | 112 | > 10 | > 10 | > 10 | > 10 | > 10 | 0 | 0 | 0 | 0 | 0 |
| CCCOCCn1c(=O)c(N2CCN(CCO)CC2)nc2cnc(-c3ccc(OC)nc3)cc21 | 102 | 92.3 | 94.4 | 86.8 | 93.6 | 99.5 | 88.8 | 98.9 | 94.2 | 104 | 109 | 105 | 98.8 | 104 | 87.1 | 95.5 | 97.4 | 103 | 95.5 | 99.8 | 109 | 107 | 100 | 107 | 92.8 | > 10 | > 10 | > 10 | > 10 | > 10 | 0.1 | 0 | 0 | 0 | 0 |
